# Experimental data taken from publication PMC9423655, “Huntington’s disease phenotypes are improved via mTORC1 modulation by small molecule therapy” (PLoS ONE, 2022).
# What was measured:
# N171-82Q HD mice [1] = assay: Isoprenaline cardiac stress: survival, weight, echocardiography, heart weight, cardiomyocyte area, fibrosis; format: in vivo, N171-82Q mice
# Description: (§1) The initial trial consisted in one week of oral dosing in 12 weeks old N171-82Q males. The chronic 6 weeks treatment (Veh n = 15, NV-5297 n = 14) took place from 6 to 12 weeks of age. The cardiac stress took place in animals from 10 to 12 weeks of age (Veh-Sal n = 9, NV-Sal n = 10, Veh-Iso n = 16, NV-Iso n = 11).
# Mice were anesthetized with 2% isoflurane and restrained on a stage with electrocardiogram (EKG) sensors. Transthoracic echocardiograms were performed using the Vevo 3100 Imaging System with a linear array MX550D transducer. Images were acquired by an experienced echocardiographer and then analyzed offline using the Vevo LAB analysis software. Parasternal long axis views and short axis views were used to assess left ventricular function. Measurements were performed to evaluate left ventricular dimensions during both systole and diastole of the cardiac cycle. The Vevo LAB left ventricle [LV] analysis tool, LV trace, was used to calculate cardiac output [CO] (heart rate ∙ stroke volume), fractional shortening [FS] (ventricle diameter at the end of the diastole–ventricle diameter at the end of the systole), ejection fraction [EF] (percentage of blood ejected by the left ventricle by heart beat), stroke volume (SV) (blood volume ejected from the left ventricle per beat), heart rate [HR] (bpm), left ventricular mass [LVmass], dimensions and volumes. Both imaging and analysis were performed by an operator blinded to the mice experimental treatment.
# Cardiomyocyte area was measured in wheat germ agglutinin-labelled heart sections as previously described. Briefly, sections were cleared and rehydrated through xylene and ethanol, then labelled with WGA conjugated to Alexa Fluor 594 (8 μg/ml, Biotium) per manufacturer’s protocol. Sections were counterstained with Hoechst stain (2 μg/ml, Thermo Scientific). High-power digital images were collected such that the entirety of the left ventricular free wall was represented. A grid was superimposed over each image in ImageJ to randomly select cardiomyocytes sectioned perpendicular to the long axis, and the area of those cells was measured manually. At least 240 cardiomyocytes were measured per section. Cardiomyocyte areas were averaged for each treatment group.
# The percent of area occupied by fibrotic tissue was calculated as previously described. Briefly, heart sections were cleared and rehydrated through xylene and ethanol. Sections were counterstained with Weigert’s haematoxylin (Sigma) per manufacturer’s protocol. Collagen was labelled by staining to equilibrium with Picrosirius red (0.1% Direct Red 80, Sigma, in saturated picric acid, Sigma). Bright field and corresponding polarized light digital images were taken such that the entirety of the left ventricular free wall was represented. Image threshold was adjusted to highlight either the entire tissue (bright field) or the fibrotic tissue (polarized) in ImageJ, and percent area occupied by fibrotic tissue was calculated from these images. Large vessels were excluded from the analysis.
# Isoprenaline (Sigma) was dissolved in sterile PBS and administered by continuous infusion using implantable mini-osmotic pumps (Alzet) at a dose of 30 mg/kg body mass/day. Pumps were filled and primed in a sterile environment and inserted under 2.5% isoflurane anesthesia into the right dorsal subcutaneous space caudal to the scapulae.
# We next tested if daily NV-5297 dosing in HD mice could enable cardiac adaptation to chronic stress. In this experiment, the NV-Sal and Veh-Sal groups have an osmotic pump implant on their back. The presence of this pump makes the echocardiography more challenging, justifying the difference to the baseline groups measurements along with the smaller sample size for this experiment. For this study, we found no significant […] and therefore we focused on the changes within the vehicle-treated groups and within the NV-5297-treated groups. […]
# mTORC1 pathway (pS6) = assay: Isoprenaline cardiac stress: pS6 immunoblot of striatum and heart; format: in vivo; conditions: N171-82Q mice under isoprenaline cardiac stress, 1 hour after oral dosing 160 mg/kg
# Description: Specific regions of the brain and heart were homogenized using a Next Advance Bullet Blender Storm in Lysis Buffer (Cell lysis buffer: 1% Triton X-100, 50 mM HEPES pH 7.4, 100 mM sodium chloride, 2 mM EDTA, 10 mM Beta-glycerophosphate, 10 mM Sodium pyrophosphate, and 1 protease inhibitor) at 4°C. Lysates were cleared by centrifugation at 13,200 rpm at 4°C for 10 minutes. Equal amounts of total protein from each sample were denatured and, resolved by SDS-PAGE. Membranes were imaged using the LI-COR imaging system. Proteins levels are normalized to tubulin, actin or GAPDH levels and further normalized to vehicle treated mice for each tissue.
# Fig 8 mTORC1 pathway activation following NV-5297 dosing and cardiac stress in the striatum but not heart. Representative immunoblot (left panels) of phosphorylated S6 (^S240/244pS6) and quantification of normalized level (right panels) for homogenized heart (A) and striatum (B) isolated 1 hour after oral dosing with NV-5297 (160 mg/kg) with a saline (n = 10) or isoprenaline (n = 6) implant or treated with vehicle and an isoprenaline implant (n = 6) normalized to loading control levels and further normalized to vehicle treated mice with a saline implant (n = 9). Data are presented as mean ± SEM. *P ≤ 0.05, **P ≤ 0.01, ***P ≤ 0.001 (Mixed-effects model with Sidak’s multiple comparisons test).
# N171-82Q HD mice [2] = assay: Chronic 6-week treatment: weight, forelimb grip strength, accelerating rotarod; format: in vivo; conditions: N171-82Q mice
# Description: as §1
# The accelerated rotarod (model 47600; Ugo Basile, Comerio, Italy) test was carried out as previously described. Mice were tested at 5 (baseline) and 12 weeks of age. Briefly, mice were habituated to the test room for an hour. On the first day, mice were trained on the rotarod for 5 minutes at 4 rpm. Mice were then tested in three trials per day (with at least 30 minutes of rest between trials) for four consecutive days. For each trial, the rotarod accelerated from 4 to 40 rpm over 4 minutes with constant speed at 40 rpm for an additional minute. Trials were stopped at 300 seconds. Latency to fall (or two consecutive rotations without running) was recorded for every trial. For grip strength, mice were tested at 5 (baseline), 9 and 12 weeks of age. Mice were habituated to the test room for 1 hour. The mouse held a pull bar with both paws and are then pulled horizontally until they let go of the pull bar. Forelimb grip strength at the peak tension was measured five times per mice (Columbus Instrument). There were at least 30 minutes of rest between trials. The grip strength is calculated as the average of the four highest grip strength recorded.
# [3] = N171-82Q mice under isoprenaline cardiac stress
# [4] = oral 160 mg/kg daily for 6 weeks
smiles,measurement,setting,value
"CC(C)(C[C@H](N)C(=O)O)C(F)(F)F [NV-5297, (S)-2-amino-5,5,5-trifluoro-4,4-dimethylpentanoic acid]",mortality,"N171-82Q HD mice [1]; Iso-stressed N171-82Q mice (isoprenaline 30 mg/kg/day, 14 days), NV-5297 160 mg/kg oral daily",45%
same,body weight over trial duration,N171-82Q HD mice [1]; [3],maintained their weight
same,cardiac output from baseline,N171-82Q HD mice [1]; [3],increase
same,cardiomyocyte area,N171-82Q HD mice [1]; [3],increased
same,ejection fraction from baseline,N171-82Q HD mice [1]; [3],increased
same,fractional shortening from baseline,N171-82Q HD mice [1]; [3],increased
same,heart fibrosis,N171-82Q HD mice [1]; [3],devoid of fibrosis
same,heart mass,N171-82Q HD mice [1]; [3],elevated
same,stroke volume from baseline,N171-82Q HD mice [1]; [3],increased
same,heart rate,N171-82Q HD mice [1]; N171-82Q mice under isoprenaline cardiac stress (NV-Iso),maintain a normal heart rate
same,survival,"N171-82Q HD mice [1]; N171-82Q mice with saline implant (NV-Sal group), NV-5297 160 mg/kg oral daily",100%
same,pS6/S6 ratio in heart,mTORC1 pathway (pS6),strong trend toward increased ratios
same,pS6/S6 ratio in striatum,mTORC1 pathway (pS6),increased pS6/S6 ratio
same,accelerating rotarod motor performance over 4-day trial,"N171-82Q HD mice [2]; 12 weeks of age, oral 160 mg/kg daily for 6 weeks",improved rotarod motor performance
same,adverse effects to the treatment,"N171-82Q HD mice [2]; NV-5297 treatment, response to reviewers",No mice had explicit adverse effects
same,forelimb grip strength,N171-82Q HD mice [2]; [4],did not impact
same,weight loss,N171-82Q HD mice [2]; [4],did not impact
